{"source": "patent US9963506B2", "about": "“Human-mouse chimeric anti-CD147 antibody with non-fucosylated glycosylation” (Fourth Military Medical University, priority 2015, dated 2018)", "key": {"A549 cells [1]": {"test_system": "A549 cells", "test": "Wound healing (migration) assay", "format": "cell-based, human", "method": "(§1) Wound healing and transwell invasion assays were performed. For wound healing assay, 2×10^4 cells were plated in 24-well plate to form cell monolayer and allowed to reach confluence for 2 days. A wound was made in the monolayer (at time 0) by a 200 μl tip. After wash of the monolayer, Metuzumab solution was dispensed at 0.1 μg/ml, 1 μg/ml and 10 μg/ml, respectively, at 200 μl/well into each well. Saline was used as control. The distance between two sides of an open wound was measured under a CX71 microscope (Olympus). The distance between the two sides of the wound after 20-72 h of migration was divided by the distance at time 0 and represented on a graph. The experiments were performed in triplicates, the results were shown as mean±SD."}, "NCI-H520 cells [2]": {"test_system": "NCI-H520 cells", "test": "Wound healing (migration) assay", "format": "cell-based, human", "method": "as §1"}, "CD147^+ A549 cells": {"biological_target": "T1, CD147^+ A549 cells (Homo sapiens, UniProt P35613)", "T1 construct": "endogenous in cells; host or cells: A549 (human lung cancer cell line)", "T1 sequence (P35613 22-269 isoform P35613-2 limits assumed)": "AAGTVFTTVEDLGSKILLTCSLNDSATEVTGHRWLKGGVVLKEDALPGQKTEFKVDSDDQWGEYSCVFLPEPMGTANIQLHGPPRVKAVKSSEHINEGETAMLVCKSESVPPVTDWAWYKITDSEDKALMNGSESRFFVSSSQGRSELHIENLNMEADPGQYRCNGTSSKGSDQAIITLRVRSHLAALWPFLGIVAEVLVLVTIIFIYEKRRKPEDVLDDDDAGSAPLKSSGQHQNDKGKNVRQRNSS", "test": "Antigen-binding activity by flow cytometry", "method": "The antibody concentration is 0.001 μg/mL, 0.01 μg/mL, 0.1 μg/mL, 1 μg/ml and 10 μg/mL, respectively.\nA549 cells (10^6 cells) were incubated with the Metuzumab (HcHAb18) and cHAb18 antibody, respectively, in PBS with 0.1% BSA at 4° C. for 1 h. After three washes in PBS with 0.1% BSA, cells were incubated with the FITC-conjugated Rabbit anti-Human IgG Fc Secondary Antibody (Pierce) at 4° C. in the dark for 45 min. Cells were then washed three times and suspended in PBS for analysis using a FACS Calibur flow cytometer (BD, New Jersey, U.S.). Relative antigen expression is reported as median fluorescence intensity (MFI)."}, "A549 cells [3]": {"test_system": "A549 cells", "test": "Transwell invasion assay", "format": "cell-based, human", "conditions": "24 hours", "method": "(§2) For invasion assay, NCI-H520 or A549 cells were serum-starved for 12 hours in DMEM containing 0.1% FBS. Serum-starved cells were trypsinized and re-suspended in DMEM containing 0.1% FBS and Metuzumab solution at 0.1 μg/ml, 1 μg/ml and 10 μg/ml, respectively. 5×10^4 cells were added to the upper chamber of each well (6.5 mm in diameter, 8-μm pore size; Corning, N.Y.) coated with […] Matrigel (BD Bioscience). Medium containing 10% FBS was placed in the lower compartment of the chamber. After 24 hours at 37° C., cells on the upper membrane surface were removed by careful wiping with a cotton swab, and the filters were fixed by treatment with 95% ethanol for 30 minutes and stained with 0.2% crystal violet solution for 30 minutes. Invasive cells adhering to the undersurface of the filter were then counted (five high-power fields/chamber) using a CX71 microscope (Olympus)."}, "NCI-H520 cells [4]": {"test_system": "NCI-H520 cells", "test": "Transwell invasion assay", "format": "cell-based, human", "conditions": "24 hours", "method": "as §2"}, "A549 cells [5]": {"test_system": "A549 cells", "test": "ADCC assay (LDH release), human spleen effector cells", "format": "cell-based", "conditions": "A549 target cells", "method": "(§3) NCI-H520, A549 and NCI-H446 cells (1×10^4 per well) were incubated with Metuzumab or cHAb18 mAb for 30 min at 37° C. Effector cells (Spleen cells) were added at the ratio of effector cells to […] (E/T) 50:1 for 24 hours at 37° C. in CO2 incubator. After centrifugation, supernatants were harvested and lactate dehydrogenase (LDH) activity were measured. Data represent mean±SD of five independent experiments.\n(§4) The ADCC activity was determined by measuring lactate dehydrogenase (LDH) activity in the medium using a Cytotoxicity Detection Kit (LDH; Roche) according to the manufacturer's protocols.\n(§5) In vitro ADCC assays were performed with human lung cancer cell lines (NCI-H520, A549 and NCI-H446) as target cells, and human spleen cells were used as effector cells. The target cells (1×10^4 per well) were washed with PBS and pre-incubated with antibodies solution for 30 min at 37° C. in serum-free RPMI-1640 supplemented with 0.1% BSA. The antibody solution (Metuzumab or the chimeric antibody cHAb18 mAb) that has been adjusted to a concentration of 0.001, 0.01, 0.1, 1 or 10 μg/ml was dispensed at 100 μl/well into each well that contained the target cells, Subsequently, 100 μl of the effector cells at an effector/target ratio of 50:1 was dispensed into each well, and incubated at in a carbon dioxide incubator. The cells were incubated for an additional 24 h prior to the detection of cell death by measuring lactate dehydrogenase (LDH) activity in the medium using a Cytotoxicity Detection Kit (LDH; Roche) according to the manufacturer's protocols. The ADCC-inducing activity was calculated to the following formula: Cytotoxicity (expressed as a percentage)=(experimental cell lysis−spontaneous effector lysis−spontaneous target lysis)/(maximum target lysis−spontaneous target lysis)×100%. All assays were performed in triplicate."}, "NCI-H446 cells": {"test_system": "NCI-H446 cells", "test": "ADCC assay (LDH release), human spleen effector cells", "format": "cell-based", "conditions": "NCI-H446 target cells", "method": "as §3, §4, §5"}, "NCI-H520 cells [6]": {"test_system": "NCI-H520 cells", "test": "ADCC assay (LDH release), human spleen effector cells", "format": "cell-based", "conditions": "NCI-H520 target cells", "method": "as §3, §4, §5"}}, "data": [{"substance": "Metuzumab: human-mouse chimeric anti-CD147 IgG1, heavy chain SEQ ID NO: 4, light chain SEQ ID NO: 3, Mannose-5 glycoform lacking fucose and xylose", "values": [{"measurement": "migration activity repressed compared to control group", "setting": "A549 cells [1]; A549, 0.1 μg/ml", "value": 24.4, "unit": "%"}, {"measurement": "migration rate", "setting": "A549 cells [1]; A549, 0.1 μg/ml (control 20.1 μm/hr)", "value": 15.2, "unit": "μm/hr"}, {"measurement": "migration activity repressed compared to control group", "setting": "A549 cells [1]; A549, 1 μg/ml", "value": 38.3, "unit": "%"}, {"measurement": "migration rate", "setting": "A549 cells [1]; A549, 1 μg/ml (control 20.1 μm/hr)", "value": 12.4, "unit": "μm/hr"}, {"measurement": "migration activity repressed compared to control group", "setting": "A549 cells [1]; A549, 10 μg/ml", "value": 50, "unit": "%"}, {"measurement": "migration rate", "setting": "A549 cells [1]; A549, 10 μg/ml (control 20.1 μm/hr)", "value": 10.1, "unit": "μm/hr"}, {"measurement": "migration activity decrease compared to control group", "setting": "NCI-H520 cells [2]; NCI-H520, 0.1 μg/ml", "value": 20.2, "unit": "%"}, {"measurement": "migration rate", "setting": "NCI-H520 cells [2]; NCI-H520, 0.1 μg/ml (saline 18.8 μm/hr)", "value": 15.0, "unit": "μm/hr"}, {"measurement": "migration activity decrease compared to control group", "setting": "NCI-H520 cells [2]; NCI-H520, 1 μg/ml", "value": 34.0, "unit": "%"}, {"measurement": "migration rate", "setting": "NCI-H520 cells [2]; NCI-H520, 1 μg/ml (saline 18.8 μm/hr)", "value": 12.4, "unit": "μm/hr"}, {"measurement": "migration activity decrease compared to control group", "setting": "NCI-H520 cells [2]; NCI-H520, 10 μg/ml", "value": 44.1, "unit": "%"}, {"measurement": "migration rate", "setting": "NCI-H520 cells [2]; NCI-H520, 10 μg/ml (saline 18.8 μm/hr)", "value": 10.5, "unit": "μm/hr"}, {"measurement": "CD147-binding ability, Metuzumab compared with cHAb18", "setting": "CD147^+ A549 cells; FIG. 4", "value": "similar"}, {"measurement": "Binding to CD147^+ A549 cells", "setting": "CD147^+ A549 cells; FIG. 4, 0.001-10 μg/mL", "value": "bound"}, {"measurement": "invasiveness repressed compared to control groups", "setting": "A549 cells [3]; A549, 0.1 μg/ml", "value": 53.5, "unit": "%"}, {"measurement": "invasiveness repressed compared to control groups", "setting": "A549 cells [3]; A549, 1 μg/ml", "value": 61.5, "unit": "%"}, {"measurement": "invasiveness repressed compared to control groups", "setting": "A549 cells [3]; A549, 10 μg/ml", "value": 74.6, "unit": "%"}, {"measurement": "invasiveness repressed compared to control groups", "setting": "NCI-H520 cells [4]; NCI-H520, 0.1 μg/ml", "value": 30.0, "unit": "%"}, {"measurement": "invasiveness repressed compared to control groups", "setting": "NCI-H520 cells [4]; NCI-H520, 1 μg/ml", "value": 48.0, "unit": "%"}, {"measurement": "invasiveness repressed compared to control groups", "setting": "NCI-H520 cells [4]; NCI-H520, 10 μg/ml", "value": 66.2, "unit": "%"}, {"measurement": "ADCC-inducing activity increase over cHAb18 mAb", "setting": "A549 cells [5]", "value": "about 10 folds"}, {"measurement": "EC50% (ADCC)", "setting": "A549 cells [5]; effector/target 50:1, 24 h", "value": 0.06, "unit": "µg/mL"}, {"measurement": "ADCC-inducing activity increase over cHAb18 mAb", "setting": "NCI-H446 cells", "value": "about 10 folds"}, {"measurement": "EC50% (ADCC)", "setting": "NCI-H446 cells; effector/target 50:1, 24 h", "value": 0.11, "unit": "µg/mL"}, {"measurement": "ADCC-inducing activity increase over cHAb18 mAb", "setting": "NCI-H520 cells [6]", "value": "about 10 folds"}, {"measurement": "EC50% (ADCC)", "setting": "NCI-H520 cells [6]; effector/target 50:1, 24 h", "value": 0.04, "unit": "µg/mL"}]}]}
